Results: US5571804A, “Cephalosporin antibiotics” (priority 1993, dated 1996)

How the values were obtained:
[1] = system: Pseudomonas aeruginosa 6065; experiment: MIC, two-fold agar dilution; type: cell-based; conditions: Muller-Hinton agar, 37° C., 20 hours
[2] = system: Staphylococcus aureus 6538P; experiment: MIC, two-fold agar dilution; type: cell-based; conditions: Muller-Hinton agar, 37° C., 20 hours
[3] = system: Staphylococcus aureus 241; experiment: MIC, two-fold agar dilution; type: cell-based; conditions: Muller-Hinton agar, 37° C., 20 hours
[4] = system: Pseudomonas aeruginosa 10145; experiment: MIC, two-fold agar dilution; type: cell-based; conditions: Muller-Hinton agar, 37° C., 20 hours
E. coli 3190Y = experiment: MIC, two-fold agar dilution; type: cell-based; conditions: Muller-Hinton agar, 37° C., 20 hours
[5] = system: Klebsiella aerogenes K1 + 1082E; experiment: MIC, two-fold agar dilution; type: cell-based; conditions: Muller-Hinton agar, 37° C., 20 hours
[6] = system: Staphylococcus epidermidis 887E; experiment: MIC, two-fold agar dilution; type: cell-based; conditions: Muller-Hinton agar, 37° C., 20 hours
[7] = system: Pseudomonas aeruginosa 1912E; experiment: MIC, two-fold agar dilution; type: cell-based; conditions: Muller-Hinton agar, 37° C., 20 hours
[8] = system: Staphylococcus aureus giorgio; experiment: MIC, two-fold agar dilution; type: cell-based; conditions: Muller-Hinton agar, 37° C., 20 hours
[9] = system: Citrobacter diversus 2046E; experiment: MIC, two-fold agar dilution; type: cell-based; conditions: Muller-Hinton agar, 37° C., 20 hours
[10] = pharmakinetic variables in SD rats; conditions: rat, in vivo, iv, 20 mg/kg
Method: The pharmakinetic variables were determined using SD rats (.male.) of a body weight of 230±10g as follows. The "S" compound of each of the Examples was injected to femoral vein of 4-5 rats by 20mg/Kg and then blood was collected from femoral artery in 1, 2.5, 5, 10, 20, 40, 60 and 120 min.

Proteus vularis 6059A = experiment: MIC, two-fold agar dilution; type: cell-based; conditions: Muller-Hinton agar, 37° C., 20 hours
Staphylococcus aureus 77 = experiment: MIC, two-fold agar dilution; type: cell-based; conditions: Muller-Hinton agar, 37° C., 20 hours
[11] = system: Salmonella typhimurium 14028A; experiment: MIC, two-fold agar dilution; type: cell-based; conditions: Muller-Hinton agar, 37° C., 20 hours
[12] = system: Streptococcus laecalis 29212A; experiment: MIC, two-fold agar dilution; type: cell-based; conditions: Muller-Hinton agar, 37° C., 20 hours
[13] = system: Acinetobacter calcoaceticus 15473A; experiment: MIC, two-fold agar dilution; type: cell-based; conditions: Muller-Hinton agar, 37° C., 20 hours
[14] = system: Serratia marcescens 1826E; experiment: MIC, two-fold agar dilution; type: cell-based; conditions: Muller-Hinton agar, 37° C., 20 hours
E. coli 10536 = experiment: MIC, two-fold agar dilution; type: cell-based; conditions: Muller-Hinton agar, 37° C., 20 hours
E. coli 851E = experiment: MIC, two-fold agar dilution; type: cell-based; conditions: Muller-Hinton agar, 37° C., 20 hours
E. coli TEM9 2639E = experiment: MIC, two-fold agar dilution; type: cell-based; conditions: Muller-Hinton agar, 37° C., 20 hours
[15] = system: Klebsiella aerogenes SHV-1 1976E; experiment: MIC, two-fold agar dilution; type: cell-based; conditions: Muller-Hinton agar, 37° C., 20 hours
Enterobacter cloacae P99 = experiment: MIC, two-fold agar dilution; type: cell-based; conditions: Muller-Hinton agar, 37° C., 20 hours
E. coli TEM5 3739E = experiment: MIC, two-fold agar dilution; type: cell-based; conditions: Muller-Hinton agar, 37° C., 20 hours
E. coli TEM3 3455E = experiment: MIC, two-fold agar dilution; type: cell-based; conditions: Muller-Hinton agar, 37° C., 20 hours
E. coli TEM7 3457E = experiment: MIC, two-fold agar dilution; type: cell-based; conditions: Muller-Hinton agar, 37° C., 20 hours
E. coli TEM1 1193E = experiment: MIC, two-fold agar dilution; type: cell-based; conditions: Muller-Hinton agar, 37° C., 20 hours
[16] = system: Enterobacter cloacae IND + VE 1194E; experiment: MIC, two-fold agar dilution; type: cell-based; conditions: Muller-Hinton agar, 37° C., 20 hours

SMILES	minimal inhibitory concentration (MIC) [1]	minimal inhibitory concentration (MIC) [2]	minimal inhibitory concentration (MIC) [3]	minimal inhibitory concentration (MIC) [4]	minimal inhibitory concentration (MIC) (E. coli 3190Y)	minimal inhibitory concentration (MIC) [5]	minimal inhibitory concentration (MIC) [6]	minimal inhibitory concentration (MIC) [7]	minimal inhibitory concentration (MIC) [8]	minimal inhibitory concentration (MIC) [9]	minimal inhibitory concentration (MIC) (Proteus vularis 6059A)	minimal inhibitory concentration (MIC) (Staphylococcus aureus 77)	minimal inhibitory concentration (MIC) [11]	minimal inhibitory concentration (MIC) [12]	minimal inhibitory concentration (MIC) [13]	minimal inhibitory concentration (MIC) [14]	minimal inhibitory concentration (MIC) (E. coli 10536)	minimal inhibitory concentration (MIC) (E. coli 851E)	minimal inhibitory concentration (MIC) (E. coli TEM9 2639E)	minimal inhibitory concentration (MIC) [15]	further results
CC(C)(O/N=C(\C(=O)N[C@@H]1C(=O)N2C(C(=O)[O-])=C(C[n+]3ccccc3)CS[C@H]12)c1csc(N)n1)C(=O)O [Ceftazidime, reference compound]	16	16	> 128	2	0.063	0.25	> 128	1	4	0.5	0.063	32	0.25	> 128	2	0.25	0.13				AUC at 2 h [10]: 31100 ng·h/mL
Nc1cc(SCC2=C(C(=O)O)N3C(=O)[C@@H](NC(=O)/C(=N\O[C@H](C(=O)O)c4ccc(O)c(O)c4)c4csc(N)n4)[C@H]3SC2)nc(N)n1 [Compound I-6S, 7-[(Z)-2-(aminothiazol-4-yl)-2-(α-carboxy-3,4-dihydroxybenzyloxyimino)acetamido]-3-(2,6-diamino-pyrimidine-4-yl)thiomethyl-3-cephem-4-carboxylate]	0.25	1	64	0.25	0.031	0.031	32		1	0.063	0.13	8	0.016	2	0.13	0.13	≤ 0.008	0.031	0.13	0.13	minimal inhibitory concentration (MIC) (Enterobacter cloacae P99): 8; minimal inhibitory concentration (MIC) (E. coli TEM5 3739E): 0.063; minimal inhibitory concentration (MIC) (E. coli TEM3 3455E): 0.016; minimal inhibitory concentration (MIC) (E. coli TEM7 3457E): ≤ 0.008; AUC at 2 h [10]: 59800 ng·h/mL; half-life [10]: 1.03 h; minimal inhibitory concentration (MIC) (E. coli TEM1 1193E): 0.031; minimal inhibitory concentration (MIC) [16]: 2
Nc1cc(SCC2=C(C(=O)O)N3C(=O)[C@@H](NC(=O)/C(=N\O[C@H](C(=O)O)c4ccc(O)c(O)c4)c4csc(N)n4)[C@H]3SC2)ncn1 [Compound I-7S, 7[-(Z)-2-(aminothiazol-4-yl)-2-(α-carboxy-3,4-dihydroxybenzyloxyimino)acetamido]-3-(6-amino-pyrimidine-4-yl)thiomethyl-3cephem-4-carboxylate]	0.5	2	64	0.25	0.031	0.063	32	0.25	1	0.063	0.25	4	0.016	2	0.13	0.25	≤ 0.008	0.063	0.13	0.25	minimal inhibitory concentration (MIC) (Enterobacter cloacae P99): 8; minimal inhibitory concentration (MIC) (E. coli TEM5 3739E): 0.063; minimal inhibitory concentration (MIC) (E. coli TEM3 3455E): 0.016; minimal inhibitory concentration (MIC) (E. coli TEM7 3457E): 0.016; AUC at 2 h [10]: 60000 ng·h/mL; half-life [10]: 0.983 h; minimal inhibitory concentration (MIC) (E. coli TEM1 1193E): 0.063; minimal inhibitory concentration (MIC) [16]: 2
Nc1cc(SCC2=C(C(=O)O)N3C(=O)[C@@H](NC(=O)/C(=N\O[C@@H](C(=O)O)c4ccc(O)c(O)c4)c4csc(N)n4)[C@H]3SC2)ncn1 [Compound I-7R, 7[-(Z)-2-(aminothiazol-4-yl)-2-(α-carboxy-3,4-dihydroxybenzyloxyimino)acetamido]-3-(6-amino-pyrimidine-4-yl)thiomethyl-3cephem-4-carboxylate]	4	2	128	2	0.063	0.25	32	0.25	2	0.13	0.25	8	0.13	4	0.25	0.5	0.016	0.13	0.25	0.25	minimal inhibitory concentration (MIC) (Enterobacter cloacae P99): 8; minimal inhibitory concentration (MIC) (E. coli TEM5 3739E): 0.063; minimal inhibitory concentration (MIC) (E. coli TEM3 3455E): 0.031; minimal inhibitory concentration (MIC) (E. coli TEM7 3457E): 0.031; minimal inhibitory concentration (MIC) (E. coli TEM1 1193E): 0.13; minimal inhibitory concentration (MIC) [16]: 4
Nc1cc(SCC2=C(C(=O)O)N3C(=O)[C@@H](NC(=O)/C(=N\O[C@@H](C(=O)O)c4ccc(O)c(O)c4)c4csc(N)n4)[C@H]3SC2)nc(N)n1 [Compound I-6R, 7-[(Z)-2-(aminothiazol-4-yl)-2-(α-carboxy-3,4-dihydroxybenzyloxyimino)acetamido]-3-(2,6-diamino-pyrimidine-4-yl)thiomethyl-3-cephem-4-carboxylate]	1	1	64	0.25	0.063	0.25	32	0.25	1	0.13	0.25	16	0.13	4	0.25	0.5	0.016	0.063	0.25	0.25	minimal inhibitory concentration (MIC) (Enterobacter cloacae P99): 8; minimal inhibitory concentration (MIC) (E. coli TEM5 3739E): 0.063; minimal inhibitory concentration (MIC) (E. coli TEM3 3455E): 0.031; minimal inhibitory concentration (MIC) (E. coli TEM7 3457E): 0.016; minimal inhibitory concentration (MIC) (E. coli TEM1 1193E): 0.063; minimal inhibitory concentration (MIC) [16]: 4
